System: serotonin reuptake (5HT), rat cerebral cortex synaptosomes
Assay: Inhibition of synaptosomal reuptake of 3H-serotonin (3H-5HT) in cortical synaptosomes
Type: biochemical, rat (male Sprague-Dawley)
Settings: 37° C., 5 min, 50 nM 3H-5HT, read-out: IC50 (nM) 5HT (concentration needed to inhibit the uptake of 3H-5HT by 50%)
Protocol: This general procedure is described in Wong et al., Drug Development Research, 6, 397-403 (1985).
Male Sprague-Dawley rats (110-150 gm) from Harlan Industries (Cumberland, Ind.) were fed Purina Chow ad libitum for at least three days before being used in the study. Rats were killed by decapitation. Whole brains were removed and dissected. Cerebral cortex was homogenized in 9 volumes of a medium containing 0.32 M sucrose and 10 mM glucose. Crude synaptosomal preparations were isolated after differential centrifugation at 1,000 g for 10 min. and 17,000 g for 28 min. The final pellets were suspended in the same medium and kept in ice until use within the same day.
Synaptosomal reuptake of ^3 H-serotonin (^3 H-5-hydroxytryptamine, ^3 H-5HT) was determined as follows: Cortical synaptosomes (equivalent to 1 mg protein) were incubated at 37° C. for 5 min. in 1 mL of Krebs-bicarbonate medium containing also 10 mM glucose, 0.1 mM iproniazide, 1 mM ascorbic acid, 0.17 mM EDTA and 50 nM ^3 H-5HT. The reaction mixture was immediately diluted with 2 mL of ice chilled Krebs-bicarbonate buffer and filtered under vacuum with a cell harvester (Brandel, Gaithersburg, Md.). Filters were rinsed twice with approximately 5 mL ice chilled 0.9% saline and were transferred to a counting vial containing 10 mL of scintillation fluid (PCS, Amersham, Arlington Heights, Ill.). Radioactivity was measured by a liquid scintillation spectrophotometer. Accumulation of ^3 H-5HT at 4° C. represented the background and was subtracted from all samples.

Compound	IC50 [nM]
CN1C[C@@H]2CN(C3CCc4ccccc4C3)C[C@@H]2C1 (relative stereo) [Example 1, cis-hexahydro-2-methyl-5-(1,2,3,4-tetrahydro-2-naphthalenyl) pyrrolo<3,4-c>pyrrole dimaleate]	122
CN1C[C@@H]2CN(C3CCc4cccc(Cl)c4C3)C[C@@H]2C1 (relative stereo) [Example 2, cis-hexahydro-2-methyl-5-(1,2,3,4-tetrahydro-8-chloro-2-naphthalenyl)pyrrolo<3,4-c>pyrrole dimaleate]	42
COc1cccc2c1CC(N1C[C@H]3CN(C)C[C@H]3C1)CC2 (relative stereo) [Example 3, cis-hexahydro-2-methyl-5-(1,2,3,4-tetrahydro-8-methoxy-2-naphthalenyl)pyrrolo<3,4-c>pyrrole dimaleate]	20
CN1C[C@@H]2CN(C3CCc4cccc(O)c4C3)C[C@@H]2C1 (relative stereo) [Example 4, cis-hexahydro-2-methyl-5-(1,2,3,4-tetrahydro-8-hydroxy-2-naphthalenyl)pyrrolo<3,4-c>pyrrole dimaleate]	5.4
COc1ccc(Br)c2c1CC(N1C[C@H]3CN(C)C[C@H]3C1)CC2 (relative stereo) [Example 5, cis-hexahydro-2-methyl-5-(1,2,3,4-tetrahydro-5-bromo-8-methoxy-2-naphthalenyl)pyrrolo<3,4-c>pyrrole dimaleate]	38
COc1cccc2c1CC(N1C[C@H]3CN(Cc4ccccc4)C[C@H]3C1)CC2 (relative stereo) [Example 6, cis-hexahydro-2-benzyl-5-(1,2,3,4-tetrahydro-8-methoxy-2-naphthalenyl)pyrrolo<3,4-c>pyrrole dimaleate]	60
COc1cccc2c1CC(N1C[C@H]3CNC[C@H]3C1)CC2 (relative stereo) [Example 7, cis-hexahydro-5-(1,2,3,4-tetrahydro-8-methoxy-2-naphthalenyl)pyrrolo<3,4-c>pyrrole dimaleate]	30
COc1ccc(Br)c2c1CC(N1C[C@H]3CNC[C@H]3C1)CC2 (relative stereo) [Example 8, cis-hexahydro-5-(1,2,3,4-tetrahydro-5-bromo-8-methoxy-2-naphthalenyl)pyrrolo<3,4-c>pyrrole dimaleate]	50
Cc1cccc2c1CC(N1C[C@H]3CN(C)C[C@H]3C1)CC2 (relative stereo) [Example 9, cis-hexahydro-2-methyl-5-(1,2,3,4-tetrahydro-8-methyl-2-naphthalenyl)pyrrolo<3,4-c>pyrrole dimaleate]	293
Cc1ccc(Br)c2c1CC(N1C[C@H]3CN(C)C[C@H]3C1)CC2 (relative stereo) [Example 10, cis-hexahydro-2-methyl-5-(1,2,3,4-tetrahydro-5-bromo-8-methyl-2-naphthalenyl)pyrrolo<3,4-c>pyrrole dimaleate]	413
COc1cccc2c1[C@@H](C)[C@@H](N1C[C@H]3CN(C)C[C@H]3C1)CC2 (relative stereo) [Example 11, cis-hexahydro-2-methyl-5-(cis-1-methyl-1,2,3,4-tetrahydro-8-methoxy-2-naphthalenyl)pyrrolo<3,4-c>pyrrole dimaleate]	65
COc1cccc2c1[C@@H](C)[C@@H](N1C[C@H]3CNC[C@H]3C1)CC2 (relative stereo) [Example 12, cis-hexahydro-5-(cis-1-methyl-1,2,3,4-tetrahydro-8-methoxy-2-naphthalenyl)pyrrolo<3,4-c>pyrrole dimaleate]	340

— US5457121A, “Cis-hexahydro-5-(1,2,3,4-tetrahydro-2-naphthalenyl)pyrrolo<3,4-c> pyrroles as inhibitors of serotonin reuptake” (Eli Lilly and Company, priority 1994, dated 1995)
